Experimental data taken from PubChem BioAssay AID2060359 (Molecular Pharmacology Branch, DTP, NCI, 2025).

System: 276233-004-R-J1-PDC spheroids with HUVEC/MSC, viability
Experiment: Anticancer human tumor 276233-004-R-J1-PDC patient-derived colon adenocarcinoma cell line growth inhibition [TAK]
Conditions: for IC50: curve of first compound; for viability, T/C: stronger effect = lower value
Excerpt: Combinatorial screen of targeted agents with TAK-243 and ipatasertib in multi-cell type tumor spheroids
A high-throughput screen of multi-cell type tumor spheroids was designed to identify active combinations of targeted small molecules and TAK-243 or ipatasertib. Complex spheroids include a stromal component modeled by human endothelial cells (HUVEC) and fibroblasts modeled by human mesenchymal stem cells (MSCs). The concentration ranges selected for each drug and investigational agent were based upon clinically achievable concentrations if the clinical Cmax of the agent was known.
Compounds. The drugs and investigational agents: TAK-243 (785004), ipatasertib (767898), everolimus (733504), selumetinib (741078), bortezomib (756655), trametinib (758246), ixazomib (758254), vemurafenib (761431), dabrafenib (764134), sapanisertib (764658), alpelisib (765974), and copanlisib (816437), were obtained from the National Cancer Institute (NCI) Developmental Therapeutics Program Chemical Repository. The FDA-approved anticancer drug set is available from the NCI Developmental Therapeutics Program. […] The stock solutions were prepared in dimethyl sulfoxide (DMSO, Sigma-Aldrich, St. Louis, MO, cat. D2650) at 800-fold the tested concentration and stored at -70 degrees C prior to their use. All drugs and investigational agents were tested over a range starting from a high concentration at or near the clinical Cmax and decreasing in half-log increments. If the clinical Cmax for an agent had not been determined, the highest concentration tested was 10 microM.
NCI60 Cell Culture. NCI60 cell lines were obtained from the NCI Developmental Therapeutics Program Tumor Repository. For each lot of cells, the Repository performed Applied Biosystems AmpFLSTR Identifiler testing with PCR amplification to confirm consistency with the published Identifier STR profile for each cell line. Cells were kept in continuous culture for no more than 20 passages. The optimal seeding densities for each of the cell lines at each time point assessed were determined prior to performing the concentration response studies. Briefly, the NCI60 human tumor lines were grown as monolayers in RPMI 1640 medium supplemented with 10% FBS and 2 mmol/L L-glutamine.
An additional 2 lines were from the NCI60 cell line panel including melanomas, MALME-3M and SK-MEL-2. Pooled donor human umbilical vein endothelial cells (HUVEC, Lonza, cat. CC-2519) and human mesenchymal stem cells (hMSC, Lonza, cat. PT-2501) were purchased from Lonza (Walkersville, MD).
PDMR cell lines were grown in complete medium (DC medium): Dulbecco's modified Eagle's medium (DMEM)/F12 supplemented with 5% fetal bovine serum (FBS), 2 mM L-glutamine, 100 U/mL penicillin and 100 µg/ml streptomycin, 0.4 µg/ml hydrocortisone, 10 ng/ml epidermal growth factor (EGF) recombinant human protein, 24 µg/mL adenine, and 0.1 mg/mL primocin. During culture from frozen stock vials, PDMR cells were cultured in the same medium containing 10 µM Y-27632 (see Table 3). The PDCs were cultured in complete DMEM/F12 media without 10 microM Y-27632 dihydrochloride for at least two passages prior to the screen. The pooled donor HUVEC and hMSC were cultured in endothelial cell growth medium 2 (PromoCell, Heidelberg, Germany, cat. C-22011) and mesenchymal stem cell growth medium 2 (PromoCell, cat. C-28009), respectively. For all experiments, HUVEC and hMSC were used at passages </=5.
For the pre-screen, cell seeding densities were determined from a titration spanning the range from 5,000 to 313 cells per well. The mct-spheroids including 60% malignant cells, 25% HUVEC and 15% MSC dispensed as a mixture into U-bottom Ultra-Low Attachment 384-well plates (Corning, NY)
High-throughput Drug Combination Screening.
Prior to their inoculation into 384-well plates, malignant cells, HUVEC, and hMSC were removed from T flasks using TrypLE express (Thermo Fisher Scientific, cat. 12605036) and harvested by centrifugation for 5 min at 233 x g. […]

[1] = second compound 0.3 µM, first compound 0.00949 µM
[2] = second compound 0.3 µM, first compound 0.03 µM
[3] = second compound 0.949 µM, first compound 0.00949 µM
[4] = second compound 0.949 µM, first compound 0.03 µM
[5] = second compound 3 µM, first compound 0.00949 µM
[6] = second compound 3 µM, first compound 0.03 µM
[7] = second compound 9.49 µM, first compound 0.00949 µM
[8] = second compound 9.49 µM, first compound 0.03 µM
[9] = second compound 30 µM, first compound 0.00949 µM
[10] = second compound 30 µM, first compound 0.03 µM
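Also: spheroids exposed to drugs for seven days before the viability read.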

Structure (SMILES): CC(=O)Nc1cccc(-n2c(=O)n(C3CC3)c(=O)c3c(Nc4ccc(I)cc4F)n(C)c(=O)c(C)c32)c1 + CC(C)NCC(C(=O)N1CCN(c2ncnc3c2C(C)CC3O)CC1)c1ccc(Cl)cc1
- IC50 (second compound 0.3 µM): 8.22 nM
- IC50 (second compound 0.949 µM): 5.23 nM
- IC50 (second compound 3 µM): 3.25 nM
- IC50 (second compound 9.49 µM): 1.82 nM
- IC50 (second compound 30 µM): 0.326 nM
- viability, T/C (second compound 0.3 µM, first compound 94.9 pM): 101%
- viability, T/C (second compound 0.3 µM, first compound 0.0003 µM): 86.7%
- viability, T/C (second compound 0.3 µM, first compound 0.000949 µM): 67.2%
- viability, T/C (second compound 0.3 µM, first compound 0.003 µM): 73.8%
- viability, T/C [1]: 48.8%
- viability, T/C [2]: 28.6%
- viability, T/C (second compound 0.949 µM, first compound 94.9 pM): 80.8%
- viability, T/C (second compound 0.949 µM, first compound 0.0003 µM): 84.8%
- viability, T/C (second compound 0.949 µM, first compound 0.000949 µM): 77.1%
- viability, T/C (second compound 0.949 µM, first compound 0.003 µM): 55.4%
- viability, T/C [3]: 43.2%
- viability, T/C [4]: 26%
- viability, T/C (second compound 3 µM, first compound 94.9 pM): 77.9%
- viability, T/C (second compound 3 µM, first compound 0.0003 µM): 61.6%
- viability, T/C (second compound 3 µM, first compound 0.000949 µM): 64%
- viability, T/C (second compound 3 µM, first compound 0.003 µM): 48.9%
- viability, T/C [5]: 43.5%
- viability, T/C [6]: 27.1%
- viability, T/C (second compound 9.49 µM, first compound 94.9 pM): 72.6%
- viability, T/C (second compound 9.49 µM, first compound 0.0003 µM): 69.3%
- viability, T/C (second compound 9.49 µM, first compound 0.000949 µM): 53.5%
- viability, T/C (second compound 9.49 µM, first compound 0.003 µM): 45.5%
- viability, T/C [7]: 33%
- viability, T/C [8]: 18.4%
- viability, T/C (second compound 30 µM, first compound 94.9 pM): 45.8%
- viability, T/C (second compound 30 µM, first compound 0.0003 µM): 55.1%
- viability, T/C (second compound 30 µM, first compound 0.000949 µM): 45.3%
- viability, T/C (second compound 30 µM, first compound 0.003 µM): 27.8%
- viability, T/C [9]: 29.6%
- viability, T/C [10]: 33.6%

Structure (SMILES): CC(C)CC(NC(=O)C(Cc1ccccc1)NC(=O)c1cnccn1)B(O)O (stereo not given) + CC(C)NCC(C(=O)N1CCN(c2ncnc3c2C(C)CC3O)CC1)c1ccc(Cl)cc1
- IC50 (second compound 0.3 µM): 6.01 nM
- IC50 (second compound 0.949 µM): 5.35 nM
- IC50 (second compound 3 µM): 3.83 nM
- IC50 (second compound 9.49 µM): 4.36 nM
- IC50 (second compound 30 µM): 1.38 nM
- viability, T/C (second compound 0.3 µM, first compound 31.6 pM): 103%
- viability, T/C (second compound 0.3 µM, first compound 0.0001 µM): 100%
- viability, T/C (second compound 0.3 µM, first compound 0.000316 µM): 109%
- viability, T/C (second compound 0.3 µM, first compound 0.001 µM): 109%
- viability, T/C (second compound 0.3 µM, first compound 0.00316 µM): 104%
- viability, T/C (second compound 0.3 µM, first compound 0.01 µM): 6.95%
- viability, T/C (second compound 0.949 µM, first compound 31.6 pM): 105%
- viability, T/C (second compound 0.949 µM, first compound 0.0001 µM): 106%
- viability, T/C (second compound 0.949 µM, first compound 0.000316 µM): 147%
- viability, T/C (second compound 0.949 µM, first compound 0.001 µM): 96.8%
- viability, T/C (second compound 0.949 µM, first compound 0.00316 µM): 82.9%
- viability, T/C (second compound 0.949 µM, first compound 0.01 µM): 13%
- viability, T/C (second compound 3 µM, first compound 31.6 pM): 73.4%
- viability, T/C (second compound 3 µM, first compound 0.0001 µM): 79.4%
- viability, T/C (second compound 3 µM, first compound 0.000316 µM): 81.7%
- viability, T/C (second compound 3 µM, first compound 0.001 µM): 80.3%
- viability, T/C (second compound 3 µM, first compound 0.00316 µM): 59.1%
- viability, T/C (second compound 3 µM, first compound 0.01 µM): 4.72%
- viability, T/C (second compound 9.49 µM, first compound 31.6 pM): 61%
- viability, T/C (second compound 9.49 µM, first compound 0.0001 µM): 80.3%
- viability, T/C (second compound 9.49 µM, first compound 0.000316 µM): 73.4%
- viability, T/C (second compound 9.49 µM, first compound 0.001 µM): 66%
- viability, T/C (second compound 9.49 µM, first compound 0.00316 µM): 67.7%
- viability, T/C (second compound 9.49 µM, first compound 0.01 µM): 4.19%
- viability, T/C (second compound 30 µM, first compound 31.6 pM): 56%
- viability, T/C (second compound 30 µM, first compound 0.0001 µM): 53.2%
- viability, T/C (second compound 30 µM, first compound 0.000316 µM): 55.3%
- viability, T/C (second compound 30 µM, first compound 0.001 µM): 61.4%
- viability, T/C (second compound 30 µM, first compound 0.00316 µM): 33.3%
- viability, T/C (second compound 30 µM, first compound 0.01 µM): 20.5%

Structure (SMILES): Cn1cnc2c(F)c(Nc3ccc(Br)cc3Cl)c(C(=O)NOCCO)cc21 + CC(C)NCC(C(=O)N1CCN(c2ncnc3c2C(C)CC3O)CC1)c1ccc(Cl)cc1
- IC50 (second compound 0.3 µM): 462 nM
- IC50 (second compound 0.949 µM): 361 nM
- IC50 (second compound 3 µM): 145 nM
- IC50 (second compound 9.49 µM): 63.8 nM
- IC50 (second compound 30 µM): 9.49 nM
- viability, T/C [1]: 79.5%
- viability, T/C [2]: 82.8%
- viability, T/C (second compound 0.3 µM, first compound 0.0949 µM): 65.4%
- viability, T/C (second compound 0.3 µM, first compound 0.3 µM): 52%
- viability, T/C (second compound 0.3 µM, first compound 0.949 µM): 49.8%
- viability, T/C (second compound 0.3 µM, first compound 3 µM): 38.5%
- viability, T/C [3]: 73.6%
- viability, T/C [4]: 68.5%
- viability, T/C (second compound 0.949 µM, first compound 0.0949 µM): 57.9%
- viability, T/C (second compound 0.949 µM, first compound 0.3 µM): 52.2%
- viability, T/C (second compound 0.949 µM, first compound 0.949 µM): 43.1%
- viability, T/C (second compound 0.949 µM, first compound 3 µM): 33.3%
- viability, T/C [5]: 67.2%
- viability, T/C [6]: 61.1%
- viability, T/C (second compound 3 µM, first compound 0.0949 µM): 54.4%
- viability, T/C (second compound 3 µM, first compound 0.3 µM): 42%
- viability, T/C (second compound 3 µM, first compound 0.949 µM): 39.7%
- viability, T/C (second compound 3 µM, first compound 3 µM): 31.4%
- viability, T/C [7]: 64%
- viability, T/C [8]: 57.1%
- viability, T/C (second compound 9.49 µM, first compound 0.0949 µM): 45.6%
- viability, T/C (second compound 9.49 µM, first compound 0.3 µM): 40.4%
- viability, T/C (second compound 9.49 µM, first compound 0.949 µM): 32.7%
- viability, T/C (second compound 9.49 µM, first compound 3 µM): 28.9%
- viability, T/C [9]: 50.1%
- viability, T/C [10]: 45.2%
- viability, T/C (second compound 30 µM, first compound 0.0949 µM): 42.5%
- viability, T/C (second compound 30 µM, first compound 0.3 µM): 52%
- viability, T/C (second compound 30 µM, first compound 0.949 µM): 28.9%
- viability, T/C (second compound 30 µM, first compound 3 µM): 33.1%
